Test results as given in ChEMBL document CHEMBL1221220, “Transport and signaling via the amino acid binding site of the yeast Gap1 amino acid transceptor” (Nat Chem Biol, 2009).
Changes are numbered by the printed parent chain. Calls of active or inactive are those of the source. The calls are words filed in the database; no cut-off is given here.

Experiments:
[1] = test system: T1, General amino-acid permease GAP1 (Saccharomyces cerevisiae), P19145 [G390C]; assay: Induction of yeast Gap1 G390C mutant-mediated trehalose activation at 10 mM
T1 sequence (whole entry): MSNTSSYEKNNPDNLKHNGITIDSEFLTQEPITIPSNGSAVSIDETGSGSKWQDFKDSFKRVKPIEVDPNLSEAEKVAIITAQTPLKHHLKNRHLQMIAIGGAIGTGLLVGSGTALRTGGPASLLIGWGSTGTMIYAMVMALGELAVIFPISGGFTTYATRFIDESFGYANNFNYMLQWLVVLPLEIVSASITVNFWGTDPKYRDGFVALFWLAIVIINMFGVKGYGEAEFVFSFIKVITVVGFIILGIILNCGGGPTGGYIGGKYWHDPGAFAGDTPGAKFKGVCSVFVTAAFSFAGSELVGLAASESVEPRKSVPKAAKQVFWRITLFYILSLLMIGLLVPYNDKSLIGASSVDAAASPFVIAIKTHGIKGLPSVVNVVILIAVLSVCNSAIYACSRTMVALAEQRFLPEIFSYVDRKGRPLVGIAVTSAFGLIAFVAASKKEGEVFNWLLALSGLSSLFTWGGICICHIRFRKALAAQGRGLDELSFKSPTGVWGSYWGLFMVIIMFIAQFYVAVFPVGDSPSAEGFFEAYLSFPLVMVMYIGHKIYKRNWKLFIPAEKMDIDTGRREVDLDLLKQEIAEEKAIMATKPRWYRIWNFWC

[2] = test system: T2, General amino-acid permease GAP1 (Saccharomyces cerevisiae), P19145 [S398C]; assay: Activation of yeast Gap1 S398C mutant-mediated amino acid uptake at 10 mM
T2 sequence (whole entry): T1 sequence (whole entry) with C390G, S398C

[3] = test system: T3, General amino-acid permease GAP1 (Saccharomyces cerevisiae), P19145 [A403C]; assay: Activation of yeast Gap1 A403C mutant-mediated amino acid uptake at 10 mM
T3 sequence (whole entry): T1 sequence (whole entry) with C390G, A403C

[4] = test system: T1, General amino-acid permease GAP1 (Saccharomyces cerevisiae), P19145 [G390C]; assay: Induction of yeast Gap1 G390C mutant-mediated amino acid uptake at 2 mM in presence of 10 mM MTSEA treated before compound addition
[5] = test system: T4, General amino-acid permease GAP1 (Saccharomyces cerevisiae), P19145 [A405C]; assay: Induction of yeast GAP1 A405C mutant-mediated amino acid uptake at 2 mM in presence of 10 mM MTSEA treated before compound addition
T4 sequence (whole entry): T1 sequence (whole entry) with C390G, A405C

Activity [1]: inactive
Activity [2]: inactive
Activity [3]: inactive
Activity [4]: Active
Activity [5]: Active
Compound: NC(=O)NCCC[C@H](N)C(=O)O
